Reference: patent US6339075B1, “Use of dextran and other polysaccharides to improve mucus clearance” (The University of British Columbia, priority 1997, dated 2002)

Tested on: healthy mongrel dogs
Assay: Arginine aerosol with or without dextran in anaesthetized dogs: PD, TMV, mucus rigidity
Format: in vivo, dog
Procedure: Arginine/arg. HCl was prepared as described by Solomons (Pediatrics 1971;47:384), making a stock solution of 290 mOsm, pH 7.4. Two dilutions were prepared, 97 and 29 mOsm, the balance being Ringers. The solutions were delivered by Pari jet nebulizer to 8 healthy mongrel dogs anaesthetized with pentobarbital and intubated. After 30 min. Ringer aerosol, tracheal mucus velocity (TMV by charcoal particle transport) and potential difference (PD by agar bridge) were measured under bronchoscopic control, and mucus for viscoelasticity analysis (magnetic rheometer) was collected on the endotracheal tube. On one occasion, increasing arginine conc. were aerosolized hourly, following Ringer control. On a second occasion, the same arginine solutions were used, but with 65 mg/ml low m. w. dextran (Polydex, lot #2764) added.

How did the TMV (arginine aerosol with or without dextran, increased nonsignificantly from 11.9±2.2 (Ringer)) turn out when `N=C(N)NCCC[C@H](N)C(=O)O` [arginine, L-arginine] was run?
The TMV was 14.7±2.9 mm/min.

What about the “mucus rigidity (log G*) decreased” value (arginine aerosol without dextran) of the same molecule?
The value was “not”.

And the “lumen-negative PD” value (increasing arginine aerosol, with or without added dextran 65 mg/ml, Ringer −14.3±1.4 mV)?
The value was −20.1±3.6 mV.
